Data as given in patent publication US20240409523A1, “SUGAR AMIDES AND MIXTURES THEREOF” (Clariant International Ltd, priority 2021, published 2024).

Legend:
Type in all cases: cell-based
[1] = tested on: Aspergillus brasiliensis; assay: MIC, agar dilution (yeast and mold); settings: Aspergillus brasiliensis (M); Sabouraud-4% Dextrose-Agar, pH 5.6 (+/−0.2)
Description: (§1) For testing the inhibition of bacteria, the sample was diluted in demineralized water and added in different concentrations to liquid Caso-Agar at 50° C. and is buffered to pH 7 (+/−0.2). […] Each of the solutions is poured into a petri-dish and inoculated with the same amount of bacteria, yeast or mold respectively. The minimum inhibitory concentration (MIC) is the lowest concentration of the sample that inhibits the growth of the respective microorganism where the next lowest dilution fails to inhibit the growth of said microorganism.

[2] = tested on: Penicillium funicolosum; assay: MIC, agar dilution (yeast and mold); settings: Penicillium funicolosum (M); Sabouraud-4% Dextrose-Agar, pH 5.6 (+/−0.2)
Description: as §1

[3] = tested on: Aspergillus terreus; assay: MIC, agar dilution (yeast and mold); settings: Aspergillus terreus (M); Sabouraud-4% Dextrose-Agar, pH 5.6 (+/−0.2)
Description: as §1

[4] = tested on: Candida parapsilosis; assay: MIC, agar dilution (yeast and mold); settings: Candida parapsilosis (Y); Sabouraud-4% Dextrose-Agar, pH 5.6 (+/−0.2)
Description: as §1

[5] = tested on: Penicillium minioluteum; assay: MIC, agar dilution (yeast and mold); settings: Penicillium minioluteum (M); Sabouraud-4% Dextrose-Agar, pH 5.6 (+/−0.2)
Description: as §1

[6] = tested on: Fusarium solani; assay: MIC, agar dilution (yeast and mold); settings: Fusarium solani (M); Sabouraud-4% Dextrose-Agar, pH 5.6 (+/−0.2)
Description: as §1

[7] = tested on: Saccharomyces cerevisiae; assay: MIC, agar dilution (yeast and mold); settings: Saccharomyces cerevisiae (Y); Sabouraud-4% Dextrose-Agar, pH 5.6 (+/−0.2)
Description: as §1

[8] = tested on: Candida albicans; assay: MIC, agar dilution (yeast and mold); settings: Candida albicans (Y); Sabouraud-4% Dextrose-Agar, pH 5.6 (+/−0.2)
Description: as §1

[9] = tested on: Escherichia coli; assay: MIC, agar dilution (bacteria); settings: Escherichia coli (B); Caso-Agar, pH 7 (+/−0.2)
Description: as §1

[10] = tested on: Enterobacter aerogenes; assay: MIC, agar dilution (bacteria); settings: Enterobacter aerogenes (B); Caso-Agar, pH 7 (+/−0.2)
Description: as §1

[11] = tested on: Burkholderia cepacia; assay: MIC, agar dilution (bacteria); settings: Burkholderia cepacia (B); Caso-Agar, pH 7 (+/−0.2)
Description: as §1

[12] = tested on: Serratia marcescens; assay: MIC, agar dilution (bacteria); settings: Serratia marcescens (B); Caso-Agar, pH 7 (+/−0.2)
Description: as §1

[13] = tested on: Klebsiella pneumoniae; assay: MIC, agar dilution (bacteria); settings: Klebsiella pneumoniae (B); Caso-Agar, pH 7 (+/−0.2)
Description: as §1

[14] = tested on: Staphylococcus aureus; assay: MIC, agar dilution (bacteria); settings: Staphylococcus aureus (B); Caso-Agar, pH 7 (+/−0.2)
Description: as §1

[15] = tested on: Pseudomonas aeruginosa; assay: MIC, agar dilution (bacteria); settings: Pseudomonas aeruginosa (B); Caso-Agar, pH 7 (+/−0.2)
Description: as §1

[16] = tested on: Pluralibacter gergoviae; assay: MIC, agar dilution (bacteria); settings: Pluralibacter gergoviae (B); Caso-Agar, pH 7 (+/−0.2)
Description: as §1

Substance: Cyclic N-Octanoyl/Decanoyl-N-Methylxylosamide [N-Methyl Xylosamid]
- MIC of N-Methyl Xylosamid* (70% active) in water [1]: 2000 ppm
- MIC of N-Methyl Xylosamid* (70% active) in water [2]: 1000 ppm
- MIC of N-Methyl Xylosamid* (70% active) in water [3]: 3000 ppm
- MIC of N-Methyl Xylosamid* (70% active) in water [4]: 7500 ppm
- MIC of N-Methyl Xylosamid* (70% active) in water [5]: 1500 ppm
- MIC of N-Methyl Xylosamid* (70% active) in water [6]: 1000 ppm
- MIC of N-Methyl Xylosamid* (70% active) in water [7]: 1000 ppm
- MIC of N-Methyl Xylosamid* (70% active) in water [8]: 3000 ppm
- MIC of N-Methyl Xylosamid* (70% active) in water [9]: 15000 ppm
- MIC of N-Methyl Xylosamid* (70% active) in water [10]: 15000 ppm
- MIC of N-Methyl Xylosamid* (70% active) in water [11]: 7500 ppm
- MIC of N-Methyl Xylosamid* (70% active) in water [12]: 10000 ppm
- MIC of N-Methyl Xylosamid* (70% active) in water [13]: 1000 ppm
- MIC of N-Methyl Xylosamid* (70% active) in water [14]: <500 ppm
- MIC of N-Methyl Xylosamid* (70% active) in water [15]: 10000 ppm
- MIC of N-Methyl Xylosamid* (70% active) in water [16]: 15000 ppm
